Measured values from patent US8178506B2, “Oligomeric compounds and compositions for use in modulation of small non-coding RNAs” (Regulus Therapeutics Inc., priority 2003, dated 2012).
In the oligonucleotide strings, read from the 5' end, every base follows the letter of its sugar. An asterisk marks phosphorothioate; unmarked linkages are phosphodiester. Other units and linkages are bracketed, terminal groups are in braces. A string of capitals states the bases alone. e = 2'-O-(2-methoxyethyl) (MOE); [5mC] = 5-methylcytosine; d = 2'-deoxy (DNA)

Key:
PPARγ = PPARγ mRNA expression in adipocytes (real-time PCR); type: cell-based, human; details: differentiating adipocytes transfected with oligomeric compound
aP2 = aP2 mRNA expression in adipocytes (real-time PCR); type: cell-based, human; details: differentiating adipocytes transfected with oligomeric compound; for aP2 mRNA: Table 75
HSL = HSL mRNA expression in adipocytes (real-time PCR); type: cell-based, human; details: differentiating adipocytes transfected with oligomeric compound
adipocytes = assay: Triglyceride accumulation assay in adipocytes; type: cell-based, human; details: differentiating adipocytes transfected with oligomeric compound
HuVECs = assay: Endothelial tube formation assay in HuVECs; details: for % Activity Relative to UTC (tube formation): 75 nM oligomeric compound; for tube formation: 75 nM
Glut4 = Glut4 mRNA expression in adipocytes (real-time PCR); type: cell-based, human; details: differentiating adipocytes transfected with oligomeric compound
IGFBP-1 = IGFBP-1 mRNA expression in HepG2 cells; type: cell-based, human; details: Experiment 2, insulin treated: HepG2 cells transfected with oligomeric compound, 1 nM insulin for four hours; UTC + 1 nM insulin = 100
Procedure: (§1) Approximately 28 hours after transfection, the cells are subjected to serum starvation for a period of 12 to 16 hours, using serum-free growth medium. Following serum starvation, cells are treated with 1 nM insulin (insulin-treated) or are left untreated (basal conditions) for approximately four hours. At the same time, untreated control cells in both plates are treated with 100 nM insulin to determine the maximal insulin response. Following insulin treatment (forty-eight hours after transfection), total RNA is harvested from all samples, and the amount of total RNA from each sample is determined using a Ribogreen assay (Invitrogen Corporation, Carlsbad, Calif.). Real-time PCR is performed on the total RNA samples using primer/probe sets for three insulin responsive genes: insulin-like growth factor binding protein-1 (IGFBP-1), cytosolic PEPCK (PEPCK-C), and follistatin. Gene expression levels obtained by real-time PCR are normalized for total RNA content in the samples.
(§2) Oligomeric compounds of the present invention were tested for their effects on insulin signaling in HepG2 cells. HepG2 cells were plated at 7500 cells/well in collagen coated 96-well plates. The following day, cells were transfected with oligomeric compounds targeting miRNAs using 100 nM oligomeric compound in LIPOFECTIN™ (Invitrogen Corporation, Carlsbad, Calif.) in two 96-well plates. The oligomeric compounds were tested in triplicate on each 96-well plate, except for positive and negative controls, which were measured up to six times per plate. At the end of transfection, the transfection medium was replaced by regular growth medium. Twenty-eight hours post-transfection, the cells were subjected to overnight (sixteen to eighteen hours) serum starvation using serum free growth medium. Forty-four hours post-transfection, the cells in the transfected wells were treated with either no insulin (“basal” Experiment 1, for identification of insulin-mimetic compounds) or with 1 nM insulin (“insulin treated” Experiment 2, for identification of insulin sensitizers) for four hours. At the same time, in both plates, cells in some of the un-transfected control wells are treated with 100 nM insulin to determine maximal insulin response. At the end of the insulin or no-insulin treatment (forty-eight hours post-transfection), total RNA is isolated from both the basal and insulin treated (1 nM) 96-well plates, and the amount of total RNA from each sample is determined using a Ribogreen assay (Molecular Probes, Eugene, Oreg.). Real-time PCR is performed on all the total RNA samples using primer/probe sets for three insulin responsive genes: PEPCK-c, IGFBP-1 and follistatin. Expression levels for each gene are normalized to total RNA, and values+standard deviation are expressed relative to the transfectant only untreated control (UTC) and negative control compounds.
(§3) Protocols for treatment of HepG2 cells and transfection of oligomeric compounds are as described in Example 18. Also as described in Example 18, forty-four hours post-transfection, the cells in the transfected wells were treated with either no insulin (“basal” Experiment 3 (below), for identification of insulin-mimetic compounds) or with 1 nM insulin (“insulin treated” Experiment 4 (below), for identification of insulin sensitizers) for four hours. At the same time, in both plates, cells in some of the un-transfected control wells are treated with 100 nM insulin to determine maximal insulin response. At the end of the insulin or no-insulin treatment (forty-eight hours post-transfection), total RNA is isolated from both the basal and insulin treated (1 nM) 96-well plates, and the amount of total RNA from each sample is determined using a Ribogreen assay (Molecular Probes, Eugene, Oreg.).

[1] = test system: BJ, B16-F10, T47D, T47Dp53 and HeLa cells; assay: Cell cycle assay (propidium iodide flow cytometry), cell line panel; type: cell-based; details: 150 nM oligomeric compound, 4.5 μg/ml LIPOFECTIN, after 72 hours, propidium iodide flow cytometry
PEPCK-c = PEPCK-c mRNA expression in HepG2 cells; type: cell-based, human; details: Experiment 2, insulin treated: HepG2 cells transfected with oligomeric compound, 1 nM insulin for four hours; UTC + 1 nM insulin = 100
Procedure: as §1, §2, §3

HeLa cells = assay: Cell cycle assay in HeLa cells; type: cell-based, human; details: HeLa cells, 150 nM oligomeric compound
follistatin = assay: Follistatin mRNA expression in HepG2 cells; type: cell-based, human; details: Experiment 2, insulin treated: HepG2 cells transfected with oligomeric compound, 1 nM insulin for four hours; UTC + 1 nM insulin = 100
Procedure: as §1, §2, §3

T47D cells = assay: Caspase-3 activity assay (apoptosis) in T47D cells; details: T47D cells, 200 nM oligomeric compound, 48 hours; experiment of Table 12
[2] = 24 hours, relative to untreated control (UTC = 100)
[3] = 48 hours after treatment, relative to untreated control (UTC=100)

## 327898 (antisense eG*eT*eA*eG*eT*eG*e[5mC]*eT*eT*eT*e[5mC]*eT*eA*e[5mC]*eT*eT*eT*eA*eT*eG) [compound 327898]
PPARγ; Table 75
  PPAR gamma mRNA: 101 percentage of untreated control (UTC)
aP2
  aP2 mRNA: 96 percentage of untreated control (UTC)
HSL; Table 75
  HSL mRNA: 92 percentage of untreated control (UTC)
adipocytes; Table 75
  TG (triglyceride accumulation): 102 percentage of untreated control (UTC)
HuVECs; Table 56
  % Activity Relative to UTC (tube formation): 100.0%
Glut4; Table 75
  GLUT4 mRNA: 82 percentage of untreated control (UTC)

## 327960 (antisense eG*eT*e[5mC]*eT*eG*eT*e[5mC]*eA*eA*eT*eT*e[5mC]*eA*eT*eA*eG*eG*eT*e[5mC]*eA*eT) [compound 327960]
PPARγ
  PPAR gamma mRNA: 76 percentage of untreated control (UTC)
aP2
  AP2 mRNA: 52 percentage of untreated control (UTC)
HSL
  HSL mRNA: 52 percentage of untreated control (UTC)
adipocytes
  TG (triglyceride accumulation): 47 percentage of untreated control (UTC)
HuVECs; Table 59
  % Activity Relative to UTC (tube formation): 53.3%
Glut4
  GLUT4 mRNA: 34 percentage of untreated control (UTC)

## AAAGTGTCAGATACGGTGTGG (anti-miR; chemistry not fully specified) [ISIS 327944]
HuVECs
  tube formation: suppressed tube formation

## 327929 (antisense eG*eA*eA*e[5mC]*eA*eG*eA*eT*eA*eG*eT*e[5mC]*eT*eA*eA*eA*e[5mC]*eA*e[5mC]*eT*eG*eG*eG) [compound 327929]
PPARγ; Table 75
  PPAR gamma mRNA: 71 percentage of untreated control (UTC)
aP2
  aP2 mRNA: 62 percentage of untreated control (UTC)
HSL; Table 75
  HSL mRNA: 68 percentage of untreated control (UTC)
adipocytes; Table 75
  TG (triglyceride accumulation): 65 percentage of untreated control (UTC)
HuVECs; Table 58
  % Activity Relative to UTC (tube formation): 51.9%
Glut4; Table 75
  GLUT4 mRNA: 49 percentage of untreated control (UTC)

## 327891 (antisense eG*eG*e[5mC]*e[5mC]*eG*eT*eG*eA*e[5mC]*eT*eG*eG*eA*eG*eA*e[5mC]*eT*eG*eT*eT*eA) [compound 327891]
PPARγ; Table 75
  PPAR gamma mRNA: 50 percentage of untreated control (UTC)
aP2
  aP2 mRNA: 56 percentage of untreated control (UTC)
HSL; Table 75
  HSL mRNA: 52 percentage of untreated control (UTC)
adipocytes; Table 75
  TG (triglyceride accumulation): 22 percentage of untreated control (UTC)
HuVECs; Table 56
  % Activity Relative to UTC (tube formation): 50.0%
Glut4; Table 75
  GLUT4 mRNA: 47 percentage of untreated control (UTC)

## 327953 (antisense eA*eG*eA*eA*eT*eT*eG*e[5mC]*eG*eT*eT*eT*eG*eG*eA*e[5mC]*eA*eA*eT*e[5mC]*eA) [compound 327953]
PPARγ
  PPAR gamma mRNA: 90 percentage of untreated control (UTC)
aP2
  AP2 mRNA: 92 percentage of untreated control (UTC)
HSL
  HSL mRNA: 94 percentage of untreated control (UTC)
adipocytes
  TG (triglyceride accumulation): 94 percentage of untreated control (UTC)
HuVECs; Table 59
  % Activity Relative to UTC (tube formation): 53.3%
Glut4
  GLUT4 mRNA: 112 percentage of untreated control (UTC)

## 327884 (antisense eG*e[5mC]*eA*eA*eA*eA*eA*eT*eG*eT*eG*e[5mC]*eT*eA*eG*eT*eG*e[5mC]*e[5mC]*eA*eA*eA) [compound 327884]
HuVECs; Table 56
  % Activity Relative to UTC (tube formation): 78.6%

## 327947 (antisense eT*e[5mC]*eA*eG*eT*eT*eA*eT*e[5mC]*eA*e[5mC]*eA*eG*eT*eA*e[5mC]*eT*eG*eT*eA) [compound 327947]
HuVECs; Table 58
  % Activity Relative to UTC (tube formation): 81.5%

## 328396 (antisense e[5mC]*eT*eG*eG*eT*dT*dG*dG*dG*dT*dA*dT*dG*dA*dG*eA*e[5mC]*eA*eG*eA) [compound 328396]
IGFBP-1
  IGFBP1 mRNA expression: 128
[1]
  G1 (percentage of cells in phase of the cell cycle): 56.8%
  G2/M (percentage of cells in phase of the cell cycle): 15%
  S (percentage of cells in phase of the cell cycle): 28.2%
  SubG1 (percentage of cells in phase of the cell cycle): 4.6%
  aneuploid (percentage of cells): 19.8%
PEPCK-c
  PEPCKc mRNA expression: 65
HeLa cells; [2]
  % cells aneuploid: 88%
  % cells in cell cycle phase G1: 94%
  % cells in cell cycle phase G2/M: 139%
  % cells in cell cycle phase S: 87%
  % cells in cell cycle phase subG1: 97%
HeLa cells; [3]
  % cells in cell cycle phase: G1: 89%
  % cells in cell cycle phase: G2/M: 119%
  % cells in cell cycle phase: S: 114%
  % cells in cell cycle phase: aneuploid: 129%
  % cells in cell cycle phase: subG1: 88%
follistatin
  Follistatin mRNA expression: 135
T47D cells
  Fold Increase over UTC (caspase-3 activity, apoptosis): 0.8 fold

## 327894 (antisense eA*eT*eA*e[5mC]*eA*eT*eA*e[5mC]*eT*eT*e[5mC]*eT*eT*eT*eA*e[5mC]*eA*eT*eT*e[5mC]*e[5mC]*eA) [compound 327894]
HuVECs; Table 56
  % Activity Relative to UTC (tube formation): 100.0%

## 327948 (antisense eG*e[5mC]*eT*eG*eA*eG*eT*eG*eT*eA*eG*eG*eA*eT*eG*eT*eT*eT*eA*e[5mC]*eA) [compound 327948]
HuVECs; Table 59
  % Activity Relative to UTC (tube formation): 33.3%

## GCTGAGTGTAGGATGTTTACA (anti-miR; chemistry not fully specified) [ISIS 327948]
HuVECs
  tube formation: suppressed tube formation

## 342672 (antisense eA*eT*eA*e[5mC]*e[5mC]*eG*e[5mC]*eG*eA*eT*e[5mC]*eA*eG*eT*eG*e[5mC]*eA*eT*e[5mC]*eT*eT*eT) [compound 342672]
HuVECs; Table 56
  % Activity Relative to UTC (tube formation): 46.4%
HuVECs; Table 57
  % Activity Relative to UTC (tube formation): 58.6%
HuVECs; Table 58
  % Activity Relative to UTC (tube formation): 55.6%
HuVECs; Table 59
  % Activity Relative to UTC (tube formation): 60.0%

## 327882 (antisense eT*e[5mC]*eA*e[5mC]*eT*eT*eT*eT*eG*eT*eG*eA*e[5mC]*eT*eA*eT*eG*e[5mC]*eA*eA) [compound 327882]
HuVECs; Table 56
  % Activity Relative to UTC (tube formation): 107.1%

## ATCCAATCAGTTCCTGATGCAGTA (chemistry not given here) [ISIS 327966]
HuVECs
  tube formation: suppressed tube formation

## CCGGCTGCAACACAAGACACGA (anti-miR; chemistry not fully specified) [ISIS 327958]
HuVECs
  tube formation: suppressed tube formation

## 327915 (antisense eA*e[5mC]*eA*eT*eG*eG*eT*eT*eA*eG*eA*eT*e[5mC]*eA*eA*eG*e[5mC]*eA*e[5mC]*eA*eA) [compound 327915]
HuVECs; Table 57
  % Activity Relative to UTC (tube formation): 69.0%

## 327875 (antisense eA*e[5mC]*eA*eA*e[5mC]*e[5mC]*eA*eG*e[5mC]*eT*eA*eA*eG*eA*e[5mC]*eA*e[5mC]*eT*eG*e[5mC]*e[5mC]*eA) [compound 327875]
HuVECs; Table 56
  % Activity Relative to UTC (tube formation): 71.4%

## 327932 (antisense eA*eG*eG*e[5mC]*eA*eT*eA*eG*eG*eA*eT*eG*eA*e[5mC]*eA*eA*eA*eG*eG*eG*eA*eA) [compound 327932]
HuVECs; Table 58
  % Activity Relative to UTC (tube formation): 51.9%
